From US20260226031A1, “NOVEL COMPOUNDS” (NRG THERAPEUTICS LTD., priority 2023, published 2026)

Experiments:
mPTP [1] = experiment: mPTP activity (Ca2+ retention) assay in isolated rat liver mitochondria; type: biochemical; details: isolated rat liver mitochondria; Fluo5N fluorescence at 10 min after CaCl2 (75 μM) bolus; DMSO 0%, 5 μM cyclosporin A 100% inhibition
From the text: Pharmacological inhibition or modulation of the mPTP can be measured in well characterised ‘Ca^2+ retention’ assays performed in isolated mitochondria. In vitro, isolated mitochondria rapidly sequester exogenous Ca^2+ until the intramitochondrial Ca^2+ concentration reaches the threshold for mPTP activation. Once the pore is activated, mitochondrial integrity is compromised and the stored Ca^2+ is released. The distribution of Ca^2+ between extra- and intra-mitochondrial compartments can be measured in real time with the use of membrane-impermeant Ca^2+ sensitive fluorescent dyes. Depending on the configuration of the assay, inhibition or modulation of the mPTP either delays the opening of the pore or increases the concentration of Ca^2+ required to induce mPTP opening.
MPTP activity was measured in mitochondria freshly isolated from female Sprague Dawley (250 to 300 gram) rat livers using the following method. Cervical dislocation was performed on the rat. The liver was then perfused in-situ with ~40 ml cold Dulbecco's Phosphate Buffered Saline (DPBS) prior to dissection and transferred into 30 ml Isolation Buffer (250 mM Sucrose, 10 mM KCl, 1 mM EGTA, 1 mM EDTA, 25 mM HEPES, adjusted to pH 7.5 with 1M NaOH). Each lobe of the liver was then removed from the buffer, minced using tweezers and a scalpel into ~5 mm pieces then transferred into a 50 ml Potterton dounce homogenization tube on ice containing 30 ml ice-cold centrifugation buffer (300 mM Trehalose, 25 mM HEPES, 1 mM EGTA, 1 mM EDTA, 10 mM KCl, adjusted to pH 7.5 with 1M NaOH and supplemented with 0.1% bovine serum albumin (BSA) and complete protease inhibitor cocktail (one tablet of inhibitor per 50 mls of buffer). Homogenisation was carried out using a Teflon® pestle at 1800 rpm. The slurry was centrifuged at 800 g for 10 min at 4° C., then the supernatant centrifuged at 10,000 g for 10 min. The pellet was washed once with FLIPR assay buffer (75 mM Mannitol, 25 mM Sucrose, 5 mM Potassium Phosphate Monobasic, 20 mM Tris base, 100 mM KCl, 0.1% BSA adjusted to pH 7.4 with 5M HCl) centrifuged again, then resuspended in FLIPR assay buffer to a concentration of 8.8 mg/ml protein.
Tested compounds (10 mM stock in DMSO) were serially diluted in DMSO in half log steps to generate 10 test concentrations (final concentrations in assay 30 μM to 1 nM). An intermediate dilution of 5 μl DMSO samples into 247 μl FLIPR assay buffer was carried out prior to transfer of 5 μl into duplicate wells of a 384 well polypropylene assay plate. Control wells were 0.5% (v/v) DMSO and 5 μM cyclosporin A.
A stock mitochondria/Fluo5N assay solution was prepared in 5.6 ml FLIPR assay buffer (at RT) supplemented with succinate disodium salt (10 mM), rotenone (1 μM), Fluo5N pentapotassium salt (2 μM) and 1 ml mitochondria suspension, then transferred (15 μl) into the assay plate containing test compounds and incubated for 10 min at RT. Assay plates were processed for fluorescence detection on either a FLIPR Tetra (Molecular Devices) or CLARIOstar (BMG) plate reader. For kinetic fluorescence detection on the FLIPR, dye fluorescence was measured every 3 sec for a total of 10 min. After 12 sec, a 2.5 μl bolus of CaCl2 (75 μM) was added from a source plate containing 675 μM CaCl2 in FLIPR assay buffer. Alternatively, the 2.5 μl addition of CaCl2 was performed using a Viaflow 384, plates were incubated at RT for 10 min, and dye fluorescence measured after 10 min on the CLARIOstar plate reader. pIC50 values for tested compounds were calculated using the fluorescence value collected at the 10 min timepoint on either plate reader, with % inhibition calculated using the DMSO control and cyclosporin A values as 0 and 100% respectively.

mPTP [2] = experiment: mPTP activity (Ca2+ retention) assay in isolated rat brain mitochondria; type: biochemical; details: isolated rat brain mitochondria; Fluo5N fluorescence at 10 min after Ca2+ (75 μM) bolus
Method: MPTP activity was measured in brain mitochondria freshly isolated from female Sprague Dawley (250 to 300 gram) rats. Anaesthetised rats were perfused in-situ with ~40 ml cold Dulbecco's Phosphate Buffered Saline (DPBS), then brains dissected and transferred into 30 ml Isolation Buffer (225 mM mannitol, 75 mM sucrose, 1 mM EGTA, adjusted to pH 7.4 with 1M NaOH). The brain was minced using tweezers and a scalpel into ~5 mm pieces then transferred into a 50 ml Potterton Dounce homogenization tube on ice containing 10 ml ice-cold isolation buffer (as above with addition of Complete Protease inhibitor; 1 tablet per 50 ml buffer). Homogenisation was carried out using a Teflon® pestle at 1800 rpm. The slurry was centrifuged at 2000 g for 10 min at 4° C., then the supernatant centrifuged at 12,000 g for 9 min. The pellet was resuspended with a dounce homogeniser in isolation buffer as above but with the addition of 0.02% digitonin, centrifuged at 12,000 g for 11 min and finally resuspended in 5 ml modified isolation buffer (as above but with EGTA reduced to 0.1 mM).
Test compounds were prepared in 384 well polypropylene assay plates as described above for the liver mitochondria assay. A stock mitochondria/Fluo5N assay solution was prepared in 5.6 ml assay buffer (120 mM mannitol, 40 mM MOPS, 5 mM KH2PO4, 60 mM KCl, 10 mM pyruvate, 2 mM malate, 2 mM MgCl2, 20 μM ADP, 1.26 μM oligomycin A, adjusted to pH 7.4) supplemented with Fluo5N pentapotassium salt (2 μM) and 1 ml mitochondria suspension, then transferred (15 μl) into the assay plate containing test compounds and incubated for 10 min at RT. Assay plates were then transferred to a FLIPR Tetra plate reader (Molecular Devices). Dye fluorescence was then measured every 3 sec for a total of 10 min.

SMILES: O=C(c1cncc(=O)[nH]1)N1CC(c2ccccc2)C2(CCCC2)C1 (single isomer, unassigned) [Example 17a, 6-[4-Phenyl-2-azaspiro[4.4]nonane-2-carbonyl]-1H-pyrazin-2-one]
- mPTP Rat liver pIC50* (mPTP [1]): 6
- mPTP Rat brain pIC50 (mPTP [2]): 6.63

SMILES: O=C(c1cncc(=O)[nH]1)N1CC(c2ccccc2)C2(CCCC2)C1 (single isomer, unassigned) [Example 17b, 6-[4-phenyl-2-azaspiro[4.4]nonane-2-carbonyl]-1H-pyrazin-2-one]
- mPTP Rat liver pIC50* (mPTP [1]): <4.52
- mPTP Rat brain pIC50 (mPTP [2]): <4.52

SMILES: N#Cc1ccc(C2CN(C(=O)c3cncc(=O)[nH]3)CC23CCC3)cc1 (single isomer, unassigned) [Example 20a, 4-[6-(6-oxo-1H-pyrazine-2-carbonyl)-6-azaspiro[3.4]octan-8-yl]benzonitrile]
- mPTP Rat liver pIC50* (mPTP [1]): <4.52
- mPTP Rat brain pIC50 (mPTP [2]): 4.64

SMILES: N#Cc1ccc(C2CN(C(=O)c3cncc(=O)[nH]3)CC23CCC3)cc1 (single isomer, unassigned) [Example 20b, 4-[6-(6-oxo-1H-pyrazine-2-carbonyl)-6-azaspiro[3.4]octan-8-yl]benzonitrile]
- mPTP Rat liver pIC50* (mPTP [1]): <4.52
- mPTP Rat brain pIC50 (mPTP [2]): <4.52

SMILES: O=C(c1nccc(=O)[nH]1)N1CC(c2ccccc2)C2(CCC2)C1 (single isomer, unassigned) [Example 21a, 2-[8-phenyl-6-azaspiro[3.4]octane-6-carbonyl]-3H-pyrimidin-4-one]
- mPTP Rat liver pIC50* (mPTP [1]): 5.94
- mPTP Rat brain pIC50 (mPTP [2]): 6.98

SMILES: O=C(c1nccc(=O)[nH]1)N1CC(c2ccccc2)C2(CCC2)C1 (single isomer, unassigned) [Example 21b, 2-[8-phenyl-6-azaspiro[3.4]octane-6-carbonyl]-3H-pyrimidin-4-one]
- mPTP Rat liver pIC50* (mPTP [1]): <4.52
- mPTP Rat brain pIC50 (mPTP [2]): <4.52

SMILES: O=C(c1cc(O)no1)N1CC(c2ccccc2)C2(CCC2)C1 (single isomer, unassigned) [Example 23a, (3-hydroxyisoxazol-5-yl)(8-phenyl-6-azaspiro[3.4]octan-6-yl)methanone]
- mPTP Rat liver pIC50* (mPTP [1]): 6.17
- mPTP Rat brain pIC50 (mPTP [2]): 7.22

SMILES: O=C(c1cc(O)no1)N1CC(c2ccccc2)C2(CCC2)C1 (single isomer, unassigned) [Example 23b, (3-hydroxyisoxazol-5-yl)(8-phenyl-6-azaspiro[3.4]octan-6-yl)methanone]
- mPTP Rat liver pIC50* (mPTP [1]): <4.52
- mPTP Rat brain pIC50 (mPTP [2]): <4.52

SMILES: O=C(c1nccc(=O)[nH]1)N1CC(c2ccccc2)C2(CC(F)C2)C1 (single isomer, unassigned) [Example 25a, 2-(2-fluoro-8-phenyl-6-azaspiro[3.4]octane-6-carbonyl)pyrimidin-4(3H)-one]
- mPTP Rat liver pIC50* (mPTP [1]): 6.33
- mPTP Rat brain pIC50 (mPTP [2]): 6.88

SMILES: O=C(c1nccc(=O)[nH]1)N1CC(c2ccccc2)C2(CC(F)C2)C1 (single isomer, unassigned) [Example 25b, 2-(2-fluoro-8-phenyl-6-azaspiro[3.4]octane-6-carbonyl)pyrimidin-4(3H)-one]
- mPTP Rat liver pIC50* (mPTP [1]): <4.52
- mPTP Rat brain pIC50 (mPTP [2]): 5.57

SMILES: O=C(c1nccc(=O)[nH]1)N1CC(c2ccccc2)C2(CC(F)C2)C1 (single isomer, unassigned) [Example 25c, 2-(2-fluoro-8-phenyl-6-azaspiro[3.4]octane-6-carbonyl)pyrimidin-4(3H)-one]
- mPTP Rat liver pIC50* (mPTP [1]): 5.68
- mPTP Rat brain pIC50 (mPTP [2]): 6.54

SMILES: O=C(c1nccc(=O)[nH]1)N1CC(c2ccccc2)C2(CC(F)C2)C1 (single isomer, unassigned) [Example 25d, 2-(2-fluoro-8-phenyl-6-azaspiro[3.4]octane-6-carbonyl)pyrimidin-4(3H)-one]
- mPTP Rat liver pIC50* (mPTP [1]): <4.52
- mPTP Rat brain pIC50 (mPTP [2]): <4.52

SMILES: O=C(c1cccc(=O)[nH]1)N1CC(c2ccccc2)C2(CCC2)C1 (single isomer, unassigned) [Example 26a, 6-(8-phenyl-6-azaspiro[3.4]octane-6-carbonyl)pyridin-2(1H)-one]
- mPTP Rat liver pIC50* (mPTP [1]): 4.88
- mPTP Rat brain pIC50 (mPTP [2]): 4.96
